Counter-ions that a name gives are not always drawn.
Molecular target: T1, rhAOC1 (Homo sapiens, UniProt P19801)
T1 construct: purchased R&D
T1 sequence (P19801 20-751): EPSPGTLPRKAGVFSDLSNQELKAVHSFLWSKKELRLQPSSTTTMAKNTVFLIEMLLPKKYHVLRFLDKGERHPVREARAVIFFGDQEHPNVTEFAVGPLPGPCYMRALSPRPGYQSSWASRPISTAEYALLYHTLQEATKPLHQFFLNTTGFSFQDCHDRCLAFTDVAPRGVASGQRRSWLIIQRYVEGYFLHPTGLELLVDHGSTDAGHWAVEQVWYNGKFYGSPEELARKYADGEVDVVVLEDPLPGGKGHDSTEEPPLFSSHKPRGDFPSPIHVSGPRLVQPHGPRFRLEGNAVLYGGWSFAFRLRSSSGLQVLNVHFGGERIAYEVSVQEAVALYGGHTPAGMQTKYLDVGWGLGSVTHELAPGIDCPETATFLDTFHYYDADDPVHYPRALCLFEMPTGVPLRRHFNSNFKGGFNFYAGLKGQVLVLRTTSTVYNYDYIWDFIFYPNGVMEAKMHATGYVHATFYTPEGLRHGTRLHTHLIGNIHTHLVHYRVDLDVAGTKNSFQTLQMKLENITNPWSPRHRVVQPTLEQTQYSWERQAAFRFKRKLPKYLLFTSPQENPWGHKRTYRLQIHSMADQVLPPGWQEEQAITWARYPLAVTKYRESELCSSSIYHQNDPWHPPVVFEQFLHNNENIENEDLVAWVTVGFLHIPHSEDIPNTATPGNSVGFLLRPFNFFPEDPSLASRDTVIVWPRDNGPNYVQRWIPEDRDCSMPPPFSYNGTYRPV
Experiment: Selectivity against rhAOC1 enzyme (Biological Example 1)
Type: biochemical
Settings: Table 1; histamine substrate, Amplex Red/HRP
Description: 2. Selectivity of Compounds Against rhAOC1 Enzyme
(1) Instrument, Consumable and Reagent
Microplate reader (Perkin Elmer, Nivo 5S), black unclear-bottom 96-well plate (Corning) and rhAOC1 (R&D)
(2) Preparation of Concentration Gradient Compound Solutions
An appropriate amount of the compound to be tested was taken, dissolved in DMSO to 10 mM and then stored. Before the study, an appropriate amount of mother liquor of the 10 mM compound to be tested was taken and gradiently diluted 3-fold with DMSO, 10 concentration gradients in total. Each concentration gradient was then diluted 10-fold with 0.1 M of PBS.
(3) Preparation of Enzyme Solutions
An appropriate amount of rhAOC1 mother liquor with a concentration of 0.441 mg/mL was taken and diluted with an appropriate amount of 50 mM HEPES buffer solution to obtain enzyme solutions of 4× concentrations.
(4) Preparation of Substrate Mixtures of 2× Concentrations
An appropriate amount of histamine was weighed and dissolved with 50 mM of HEPES buffer solution to obtain 20 mM of histamine solution. The histamine solution was added with 2 mM of Amplex Red mother liquor and 500 U/mL of HRP mother liquor and diluted with 50 mM of HEPES buffer solution to obtain substrate mixtures of 2× concentrations.
10 μL compound solutions of different concentrations, 25 μL rhAOC1 enzyme solutions of 4× concentrations and 15 μL of 50 mM HEPES buffer solution were first added into a 96-well plate, shaken to be mixed uniformly and then incubated at 37° C. for 30 min. 50 μL substrate mixtures of 2× concentrations were then added into each well, and the microplate reader was immediately used to detect fluorescence intensity of each well with 580 nm (20 nm) exciting light and 620 nm (10 nm) emission light for 5 min each time, 30 min in total. […]
V: fluorescence change rate; Ft: fluorescence reading at time point t; F0: initial fluorescence reading; Time: duration t; Vcmpd: fluorescence change rate of tested compound; Vmax: Max hole fluorescence change rate. […]

| IC50 | Compound |
| --- | --- |
| > 10 µM | NC/C(=C\F)Cn1ncc2c1CCN(C1CC1)C2=O [Compound A2 hydrochloride, (E)-1-(2-(aminomethyl)-3-fluoroallyl)-5-cyclopropyl-1,5,6,7-tetrahydro-4H-pyrazolo[4,3-c]pyridin-4-one] |
| 22.1 µM | NC/C(=C\F)Cn1cc2c(n1)CCN(C1CC1)C2=O [Compound A1, (E)-2-(2-(aminomethyl)-3-fluoroallyl)-5-cyclopropyl-2,5,6,7-tetrahydro-4H-pyrazolo[4,3-c]pyridin-4-one] |
